From US10646460B2, “Pharmaceutical composition for inhibiting growth of cancer stem cells, containing aldehyde inhibitor and biguanide-based compound” (NATIONAL CANCER CENTER, priority 2015, dated 2020)

Legend:
U87-luc cells = assay: Orthotopic xenograft model (U87-luc cells transplanted into the cerebrum), bioluminescence and survival; assay type: in vivo, male athymic nude mice; conditions: 5 weeks after transplantation; oral gossypol 40 mg/kg and/or phenformin 100 mg/kg each day, FIG. 7
Description: Gossypol and phenformin to be used in an animal study were dissolved in DMSO and PBS, respectively. A composition for co-administration of gossypol and phenformin was dissolved in PBS containing 10 wt % DMSO and 10 wt % cremophor.
For preparation of orthotopic xenograft models, 4-8-week-old male athymic nude mice (Central Lab., Korea) were used. For stabilization, the mice were maintained in a sterilized environment for at least one week before use in the experiment while they were fed with a sufficient diet. […] First, the mice were anesthetized by intraperitoneal injection of 30 mg/kg of Zoletil and 10 mg/kg of Xylazine, and 2×10^5 U87-luc cells were transplanted into the right frontal lobe of the cerebrum to a depth of 4.5 mm by use of a Hamilton syringe. The U87-luci cells were injected into five mice of the same group at the same time at a rate of 0.5 l/minute by use of a micro-infusion syringe pump. Thereafter, the mice were administered orally with gossypol (40 mg/kg) and/or phenformin (100 mg/kg) each day.
An increase or decrease in the body weight was checked each day, and when a mouse whose body weight decreased by 15 wt % compared to the body weight before the start of the experiment, the mouse was euthanized according to the approved protocol. […]

U87 neurosphere cells = assay: Analysis of formation of neurospheres; assay type: cell-based; conditions: 1 μM gossypol, 10 μM phenformin or mixture, 3 weeks, FIG. 3
Description: U87 cells were cultured in DMEM/F-12 medium containing 2 wt % 1×B27, 0.02 wt % bFGF (20 ng/ml), 0.02 wt % EGF (20 ng/ml) and 50 U/ml penicillin-[…] (100×, Gibco, Invitrogen Korea, Seoul, South Korea) to form tumor spheres. Next, the cells were seeded onto a 96-well plate at a density of 10 cells/well and treated with each of 1 μM gossypol, 10 μM phenformin and a mixture of 1 μM gossypol and 10 μM phenformin. Then, the cells were cultured at 37° C. for 3 weeks.
In FIG. 4, the percent change in the radius of the neurospheres is expressed as the percentage of the average radius of the neurospheres after each treatment relative to the average radius of the neurospheres seeded onto the 96-well plate, and in FIG. 5, the degree of neurosphere formation is expressed as the percentage of the number of the neurosphere cells after each treatment relative to the number of the neurosphere cells seeded onto the 96-well plate.

U87 cells (GBM cells) = assay: MTT assay of cell viability following treatment with gossypol; assay type: cell-based; conditions: 0.5, 1, 5, 10 and 50 μM gossypol, 72 hours, FIG. 1
Description: U87 cells (GBM cells) were treated with 0.5, 1, 5, 10 and 50 μM of gossypol for 72 hours (FIG. 1).

SMILES	degree of occurrence of brain cancer (bioluminescence signal) (U87-luc cells)	size of neurosphere cells / presence in cell photographs (U87 neurosphere cells)	growth of the cells (MTT assay) (U87 cells (GBM cells))
NC(N)=N/C(N)=N/CCc1ccccc1 [phenformin]	fluorescence was observed	the size of the neurosphere cells decreased	–
Cc1cc2c(C(C)C)c(O)c(O)c(C=O)c2c(O)c1-c1c(C)cc2c(C(C)C)c(O)c(O)c(C=O)c2c1O [gossypol]	fluorescence was observed	the size of the neurosphere cells decreased	growth of the cells was inhibited
